In patent US20100028259A1, “USE OF ORGANIC CATION TRANSPORTERS FOR CANCER DIAGNOSIS AND THERAPY” (The Regents of the University of California, priority 2006, published 2010):
Like-named read-outs stand apart in the source and are kept apart here.

What was measured:
[1] = tested on: MDCK-hOCT1 cells; assay: Cellular accumulation of platinum in MDCK-hOCT1 cells (ICP-MS); assay type: in vitro ADME, canine; settings: 2-hr exposure
Experimental: (§1) For the inhibitor studies, the incubation medium also contained disopyramide (150 μM). […] For the inhibitor studies, the incubation medium also contained cimetidine (1.5 mM). […] After drug exposure, the cells were washed with ice-cold PBS three times and harvested by scraping and centrifugation. The cell-associated platinum was determined by ICP-MS and normalized for protein content. Data are expressed as mean±SD from a single experiment performed in triplicate. Experiments were replicated for OCT1 and OCT2, and similar results were obtained.
(§2) The cellular accumulation of platinum was determined as described in Holzer et al., Mol. Pharmacol., 66:817-823 (2004) with some modifications. Briefly, the cells were grown in 100 mm×20 mm dishes in the culture medium without any antibiotics to over 90% confluence. For HEK 293 cells, poly-D-lysine coated dishes were used. For platinum accumulation, the cells were incubated in the culture medium containing the indicated concentrations of the platinum compounds at 37° C. in 5% CO2 for 2 hr unless specified. After incubation, the dishes were immediately placed on ice and the cells were washed with 6 ml of ice-cold PBS for three times and collected with a rubber policeman. The cell pellets were obtained by centrifugation at 400×g and at 4° C. for 15 min. For the OCT inhibitor studies, the incubation medium also contained the indicated inhibitor (i.e., disopyramide or cimetidine) in addition to the platinum-based compounds. The resulting cell pellets were then dissolved into 200 μl of 70% nitric acid at 65° C. for at least 2.5 hours, and then distilled water containing 10 ppb of iridium (Sigma) and 0.1% Triton X-100 was added to the samples to dilute nitric acid to 7%. The platinum content was measured by inductively plasma coupled mass spectrometry (ICP-MS) in the Analytical Facility at the University of California at Santa Cruz (Santa Cruz, Calif.). Cell lysates from a set of identical cultures were used for BCA protein assay.

[2] = tested on: RKO; assay: MTT drug sensitivity, colon cancer cell line RKO; assay type: cell-based, human
Experimental: (§3) Cytotoxicity of the platinum-based compounds was measured by MTT (thiazolyl blue tetrazolium bromide) assay. Cells were seeded in 100 μl of the culture medium without any antibiotics in 96-well plates at a predetermined cell density. For HEK 293 cells, poly-D-lysine coated plates were used. […] For the OCT inhibitor studies, the inhibitors (i.e., disopyramide or cimetidine) were added to the medium at a specified concentration immediately before the addition of the platinum-based compounds. After incubation for a specified time period, the drug-containing medium was replaced with fresh, drug-free medium and the incubation was continued for a total of 72 hours (start from the addition of platinum-based compounds). Then, the MTT assay was performed similarly as described in Alley et al., Cancer Res., 48:589-601 (1988). […] The maximal cell growth was the cell growth in the medium without any platinum-based compounds; C is the concentration of the platinum-based compound, and γ is the slope factor.
(§4) The cell seeding density was 6,000-, 8,000-, 6,000-, 15,000-12,000- and 4,000 cells/well for HCT116, HT29, RKO, SW620, LS180, and DLD cells, respectively. When cimetidine (1.5 mM) was used, it was added to the wells immediately before the addition of the platinum-based drugs. The resistance factor (RF) was defined as the ratio of the mean IC50 value in the presence to that in the absence of cimetidine. Data are expressed as mean±SD from six measurements, and each measurement was performed in quadruplicate.

[3] = tested on: MDCK-MOCK cells; assay: MTT drug sensitivity assay in MDCK-MOCK cells; assay type: cell-based, canine
Experimental: Cytotoxicity of the platinum-based compounds was measured by MTT (thiazolyl blue tetrazolium bromide) assay. Cells were seeded in 100 μl of the culture medium without any antibiotics in 96-well plates at a predetermined cell density. For HEK 293 cells, poly-D-lysine coated plates were used. After overnight incubation, the platinum-based compounds were then added to the culture medium to give the indicated final concentrations. For the OCT inhibitor studies, the inhibitors (i.e., disopyramide or cimetidine) were added to the medium at a specified concentration immediately before the addition of the platinum-based compounds. After incubation for a specified time period, the drug-containing medium was replaced with fresh, drug-free medium and the incubation was continued for a total of 72 hours (start from the addition of platinum-based compounds). Then, the MTT assay was performed similarly as described in Alley et al., Cancer Res., 48:589-601 (1988). […] The maximal cell growth was the cell growth in the medium without any platinum-based compounds; C is the concentration of the platinum-based compound, and γ is the slope factor.
(§5) Briefly, the cells were seeded in 96-well plates at a density of 5,000 cells/well for the transfected MDCK cells or 12,000 cells/well for the transfected HEK 293 cells. The platinum-based drugs were added on the following day. After the specified time periods of drug exposure, the drug-containing medium was replaced with fresh, drug-free medium, and the incubation was continued for a total of 72 hours (start from the time when the drug was added). After incubation, the cell growth was determined by an MTT assay. Data are expressed as mean±SD from 3 to 6 independent experiments with each performed in quadruplicate. The resistance factor (RF) was defined as the ratio of the mean IC50 value in the MOCK cells to that in the OCT-transfected cells.
(§6) Briefly, MDCK cells were seeded at a density of 5,000 cells/well in 96-well plates and exposed to the test compounds for 7 hours on the following day. After incubation for a total of 72 hours, the cell growth was determined by an MTT assay. The data for carboplatin was taken from Table 1 and was not determined simultaneously with the other compounds. The resistance factor (RF) was defined as the ratio of the mean IC50 value in MDCK-MOCK cells to that in MDCK-hOCT1 cells. Data are expressed as mean±SD from six measurements, and each measurement was performed in quadruplicate.

[4] = tested on: SW620; assay: MTT drug sensitivity, colon cancer cell line SW620; assay type: cell-based, human
Experimental: as §3, §4

[5] = tested on: MDCK-hOCT1 cells; assay: MTT drug sensitivity assay in MDCK-hOCT1 cells; assay type: cell-based, canine
Experimental: as §3, §5, §6

[6] = tested on: MDCK-MOCK cells; assay: Cellular accumulation of platinum in MDCK-MOCK cells (ICP-MS); assay type: in vitro ADME, canine; settings: 2-hr exposure
Experimental: as §1, §2

Compound: O=C1[O][Pt]2([NH][C@@H]3CCCC[C@H]3[NH]2)[O]C1=O [oxaliplatin]
- cellular platinum accumulation rate in MDCK-hOCT1, disopyramide-treated ([1]; 3 μM, disopyramide 150 μM): 4.04±0.04 pmol/mg protein-hr
- cellular platinum accumulation rate in MDCK-hOCT1 ([1]; drug 3 μM): 8.53±0.52 pmol/mg protein-hr
- effect of disopyramide on platinum accumulation rate in MDCK-hOCT1 ([1]; disopyramide 150 μM): two-fold decrease
- IC50 ([2]; absence of cimetidine, read-out: IC50 Control): 1.64 ± 0.56 µM
- IC50 ([2]; cimetidine 1.5 mM, read-out: IC50 Cimetidine-treated): 9.7 ± 2.7 µM
- IC50 ([3]; SAR study Table 4, 7 hours of drug exposure, read-out: IC50 MDCK-MOCK): 10.9 ± 3.66 µM
- IC50 ([3]; co-incubation with disopyramide 150 μM, read-out: IC50 in MDCK-MOCK, disopyramide-treated): 32.2 ± 13 µM
- IC50 ([3]; disopyramide study (FIG. 2D), without disopyramide, read-out: IC50 in MDCK-MOCK, control): 30.4 ± 9.28 µM
- IC50 ([3]; drug exposure 7 hour, MTT at 72 hours, Table 1, read-out: IC50 MDCK-MOCK): 33 ± 9.12 µM
- IC50 ([3]; drug exposure 24 hour, MTT at 72 hours, Table 1, read-out: IC50 MDCK-MOCK): 14.3 ± 5.55 µM
- IC50 ([3]; drug exposure 72 hour, Table 1, read-out: IC50 MDCK-MOCK): 9.64 ± 1.85 µM
- IC50 ([4]; SW620, absence of cimetidine, read-out: IC50 Control): 2.81 ± 1 µM
- IC50 ([4]; SW620, cimetidine 1.5 mM, read-out: IC50 Cimetidine-treated): 14.2 ± 2.81 µM
- IC50 ([5]; SAR study Table 4, 7 hours of drug exposure, read-out: IC50 MDCK-hOCT1): 0.48 ± 0.19 µM
- IC50 ([5]; co-incubation with disopyramide 150 μM, read-out: IC50 in MDCK-hOCT1, disopyramide-treated): 22.8 ± 10.5 µM
- IC50 ([5]; disopyramide study (FIG. 2D), without disopyramide, read-out: IC50 in MDCK-hOCT1, control): 3.79 ± 1.57 µM
- IC50 ([5]; drug exposure 7 hour, MTT at 72 hours, Table 1, read-out: IC50 MDCK-hOCT1): 3.89 ± 1.3 µM
- IC50 ([5]; drug exposure 24 hour, MTT at 72 hours, Table 1, read-out: IC50 MDCK-hOCT1): 1.79 ± 0.58 µM
- IC50 ([5]; drug exposure 72 hour, Table 1, read-out: IC50 MDCK-hOCT1): 1.68 ± 0.27 µM
- cellular platinum accumulation rate in MDCK-MOCK, disopyramide-treated ([6]; 3 μM, disopyramide 150 μM): 3.23±0.31 pmol/mg protein-hour
- cellular platinum accumulation rate in MDCK-MOCK ([6]; drug 3 μM): 2.94±0.11 pmol/mg protein-hr
